From US6342494B1, “Carbapenem compounds, use thereof, and intermediate compounds of the same” (Kyoto Pharmaceutical Industries, Ltd., priority 1997, dated 2002)

Key:
[1] = dogs, 20 mg/kg oral, measured as hydrolyzed carbapenem compound (A)
Procedure: The compound of the present invention (compound of Example 6, 20 mg/kg) was orally administered to dogs (3 per group) and urinary hydrolyzed carbapenem compound (A) concentration at 0-3, 3-6 and 6-24 hours later was measured by a paper disc method using test bacteria Escherichia coli NIHJ and nutrient agar medium (Difco). The urinary recovery percentage was determined.

[2] = dogs, 20 mg/kg oral, measured as hydrolyzed carbapenem compound (A); remark: listed apart in the source
Procedure: The compound of the present invention (compound of Example 6, 20 mglkg) was orally administered to dogs (3 per group) and plasma hydrolyzed carbapenem compound (A) concentration at 0.25, 0.5, 1.0, 1.5, 2.0, 3.0, 4.0 and 6.0 hours later was measured by a paper disc method using test bacteria Escherichia coli NIHJ and nutrient agar medium (Difco).

Cc1oc(=O)oc1CN1C[C@@H](SC2=C(C(=O)OCOC(=O)C(C)(C)C)N3C(=O)[C@H]([C@@H](C)O)[C@H]3[C@H]2C)C[C@H]1C(=O)N(C)C.Cl [Example 6, Pivaloyloxymethyl (1R,5S,6S)-2-{(3S,5S)-[5-N,N-dimethylaminocarbonyl-1-(5-methyl-2-oxo-1,3-dioxolen-4-yl)methyl]pyrrolidin-3-ylthio}-6-[(1R)-1-hydroxyethyl]-1-methylcarbapen-2-em-3-carboxylate hydrochloride]
urinary recovery (%) 0-3 hr ([1]; 0-3 hr): 10.3% | urinary recovery (%) 0-24 hr ([1]; 0-24 hr): 13.0% | urinary recovery (%) 3-6 hr ([1]; 3-6 hr): 2.4% | urinary recovery (%) 6-24 hr ([1]; 6-24 hr): 0.3% | concentration in plasma (μg/ml) 0.25 hr ([2]; 0.25 hr): 5.06 µg/mL | concentration in plasma (μg/ml) 0.5 hr ([2]; 0.5 hr): 6.56 µg/mL | concentration in plasma (μg/ml) 1.0 hr ([2]; 1.0 hr): 7.60 µg/mL | concentration in plasma (μg/ml) 1.5 hr ([2]; 1.5 hr): 7.67 µg/mL | concentration in plasma (μg/ml) 2.0 hr ([2]; 2.0 hr): 5.92 µg/mL | concentration in plasma (μg/ml) 3.0 hr ([2]; 3.0 hr): 3.68 µg/mL | concentration in plasma (μg/ml) 4.0 hr ([2]; 4.0 hr): 1.92 µg/mL | concentration in plasma (μg/ml) 6.0 hr ([2]; 6.0 hr): 0.43 µg/mL
